Values of other authors, collected in the CATMoS acute toxicity set (Mansouri et al. 2021).
Several values for one entry are separate records, joined by “and”; a condition that tells them apart may be missing. Identical values can stand only once.

Experiment: rat acute oral toxicity
Conditions: in vivo

Row | SMILES | LD50
1 | O=S(=O)(O)CCS | 4440 mg/kg
2 | CC(Cl)CCC(C)Cl (centres undefined) | 4000 mg/kg
3 | CCOC(=O)c1c[nH]c2cc(OCC3CC3)c(OCC3CC3)cc2c1=O | 3000 mg/kg
4 | C=CC(C)(O)CC (centres undefined) | 700 mg/kg
5 | CC(=O)CC(=O)Nc1ccc(C)cc1C | 3000 mg/kg
6 | Cc1cc(S(=O)(=O)O)c(N)cc1Cl | 12300 mg/kg
7 | CC(=O)SCC(=O)N=c1[nH]c2ccccc2s1 | 400 mg/kg
8 | O=C(O)Cn1c(=O)n(Cc2ccc(Br)cc2F)c(=O)c2ccc(F)cc21 | 2140 mg/kg
9 | CN1CC[C@]23CCCC[C@H]2[C@H]1Cc1ccc(O)cc13 | 150 mg/kg
10 | CN(C)[C@@H]1C(O)=C(C(N)=O)C(=O)[C@@]2(O)C(O)=C3C(=O)c4c(O)ccc(Cl)c4[C@@H](O)[C@H]3C[C@@H]12 | 2370 mg/kg
11 | COP(=O)(OC)OC(Cl)C(Cl)(Br)Br (centres undefined) | 49 mg/kg
12 | CC(c1ccccc1)N(C)N=O (centres undefined) | 600 mg/kg
13 | O=c1oc2cc(Cl)ccc2n1CCl | 2350 mg/kg
14 | CC1=CC(=O)c2c(O)cccc2C1=O | 65 mg/kg
15 | CCN1CCc2c3n(c4ccccc24)C(C(=O)OC)=CCC31 (centres undefined) | 2350 mg/kg
16 | c1ccc2c(c1)CCN1CCN=C1C2 | 60 mg/kg
17 | FC(F)(F)c1ccc(Cl)cc1Cl | 2150 mg/kg
18 | CSc1ccccc1 | 891 mg/kg
19 | FC(F)(F)c1nc2c(Cl)c(Br)c(Cl)c(Br)c2[nH]1 | 3.43 mg/kg
20 | CNC(=O)Oc1ccc(C)c(C)c1 | 290 mg/kg
21 | CC(C)(C)c1cc([N+](=O)[O-])cc([N+](=O)[O-])c1O | 26 mg/kg
22 | Nc1c2c(nc3ccccc13)CCCC2O (centres undefined) | 176 mg/kg
23 | COP(=S)(OC)Oc1cc(C)ccc1C(C)C | 750 mg/kg
24 | CN(C)C(=O)Oc1ccccc1C1SCCS1 | 16 mg/kg

Row | SMILES | LD50
25 | CC(C(=O)OCCN1CCN(CCOC(=O)C(C)c2cccc3ccccc23)CC1)c1cccc2ccccc12 (centres undefined) | 5550 mg/kg
26 | O=C(OCC(O)CO)c1ccccc1Nc1ccnc2cc(Cl)ccc12 (centres undefined) | 2300 mg/kg
27 | CC(C)(C)NCCC(O)c1cc(C(F)(F)F)nc2c(C(F)(F)F)cccc12 (centres undefined) | 2090 mg/kg
28 | COc1cc(C)c2c(Oc3cccc(C(F)(F)F)c3)c(OC)cc(NC(C)CCCN)c2n1 (centres undefined) | 416 mg/kg
29 | O=C(Oc1ccc(Cl)cc1Cl)N1CCCC1 | 2200 mg/kg
30 | OCC(O)C1CC=CCC1 (centres undefined) | 1070 mg/kg
31 | Cc1cccc(Cl)c1NC(=O)/C=C1\SCC(=O)N1C | 1350 mg/kg
32 | CC(CC(=O)c1ccc(-c2ccc(F)cc2F)cc1)C(=O)O (centres undefined) | 134 mg/kg
33 | COc1ccccc1NC(=O)C(N=Nc1ccc(-c2ccc(N=NC(C(C)=O)C(=O)Nc3ccccc3OC)c(Cl)c2)cc1Cl)C(C)=O (centres undefined) | 2230 mg/kg
34 | CN(C)C(CSC(N)=O)CSC(N)=O | 250 mg/kg and 225 mg/kg
35 | CN1CCCN=C1COC(=O)C(O)(c1ccccc1)C1CCCCC1 (centres undefined) | 1370 mg/kg
36 | CCCCC(CC)(COC(N)=O)COC(N)=O | 662 mg/kg
37 | c1ccc2c(CC3=NCCN3)cccc2c1 | 1260 mg/kg
38 | CC(C)[N+](C)(CCC(C(N)=O)(c1ccccc1)c1ccccc1)C(C)C | 1030 mg/kg
39 | CCCCSC(=O)Oc1c(C(C)CC)cc([N+](=O)[O-])cc1[N+](=O)[O-] (centres undefined) | 147 mg/kg
40 | CCOC(C1=NCC(O)CN1)c1ccccc1 (centres undefined) | 1750 mg/kg
41 | O=C1CCc2cc(C(=O)CCN3CCN(c4ccccc4)CC3)ccc2N1 | 500 mg/kg
42 | CC1(NC(N)=O)CCCCC1 | 1040 mg/kg
43 | NC1CCCC(N)C1 (centres undefined) | 390 mg/kg
44 | CCC(Cc1c(I)cc(I)c(N)c1I)C(=O)O (centres undefined) | 2990 mg/kg and 1540 mg/kg
45 | FC(F)(F)c1cccc(CNC2=NCCS2)c1 | 50 mg/kg
46 | Fc1cc(Br)c2nc(C(F)(F)F)[nH]c2c1 | 5.65 mg/kg
47 | CC(=O)OC1=C(c2c(C)cc(C)cc2C)C(=O)c2ccccc21 | 8000 mg/kg
48 | CCCCC(CC)COC(CBr)c1cccc(Cl)c1 (centres undefined) | 250 mg/kg

Row | SMILES | LD50
49 | O=C(O)c1ccccc1C(=O)Nc1ccccc1 | 8840 mg/kg
50 | CCCCCCCCCCOC(=O)c1ccccc1C(=O)OCCCCCCCC | 45000 mg/kg
51 | CC(Oc1ccc(Oc2ccc(Cl)cc2)cc1)C(=O)O (centres undefined) | 1200 mg/kg
52 | ClCC[N+]1(CCCCCC[N+]2(CCCl)CCCO2)CCCO1 (centres undefined) | 30 mg/kg
53 | COc1ccc2c(c1)c(CC(=O)OC/C=C(\C)CC/C=C(\C)CCC=C(C)C)c(C)n2C(=O)c1ccc(Cl)cc1 | 1680 mg/kg
54 | CCCOP(=S)(OCCC)Oc1cnn(C)c(=O)c1OC | 26 mg/kg
55 | O=C(Cc1ccccc1)OC1=C(OC(=O)Cc2ccccc2)C(=O)OC1=O | 8000 mg/kg
56 | CC1COCC(C)N1C(=O)C[n+]1ccc(-c2cc[n+](CC(=O)N3C(C)COCC3C)cc2)cc1 (centres undefined) | 345 mg/kg
57 | COC(=O)C(C)N(C(=O)c1ccccc1)c1ccc(F)c(Cl)c1 (centres undefined) | 1200 mg/kg
58 | CC(C)=CC(=O)O | 3560 mg/kg
59 | CN1CCC(c2c[nH]c3ccccc23)C1 (centres undefined) | 413 mg/kg
60 | O=C1c2ccccc2CCC1CNCCc1ccc(O)cc1 (centres undefined) | 650 mg/kg
61 | CC(O)C1Sc2ccccc2N(CCCN(C)C)C1c1ccccc1 (centres undefined) | 800 mg/kg
62 | C[C@@H]1CN(CCCn2c3ccccc3c3ccccc32)C[C@H](C)N1 | 907 mg/kg
63 | CC12CCC(C(Br)C1=O)C2(C)C (centres undefined) | 4450 mg/kg
64 | CC(C)=CCC(=O)c1ccoc1 | 25 mg/kg
65 | O=C(O)CC1(CO)CCCCC1 | 20 mg/kg
66 | CC(=O)OCOC(=O)C1=C(COC(N)=O)SC2C(C(C)O)C(=O)N12 (centres undefined) | 7230 mg/kg
67 | CCN(CCNS(C)(=O)=O)c1ccc(N)c(C)c1 | 400 mg/kg
68 | C=Cc1ccc(C)nc1 | 1170 mg/kg
69 | CN1CCN(CCCCOc2ccccc2C=Cc2ccccc2)CC1 | 2300 mg/kg
70 | O=C(OCCCl)c1ccccc1C(=O)OCCCl | 730 mg/kg
71 | O=C(OCC(COC(=O)c1ccccc1)(COC(=O)c1ccccc1)COC(=O)c1ccccc1)c1ccccc1 | 1160 mg/kg
72 | CC(C)C(=O)OCc1ccccc1 | 2850 mg/kg

Row | SMILES | LD50
73 | CCOC(=O)[C@H](CCc1ccccc1)N[C@@H](C)C(=O)N1Cc2cc(OC)c(OC)cc2C[C@H]1C(=O)O | 4020 mg/kg
74 | CC(=O)OCCC1=CC2CC(C1)C2(C)C (centres undefined) | 3000 mg/kg
75 | N#CC1CC=CCC1 (centres undefined) | 460 mg/kg
76 | CCCCCl | 2670 mg/kg
77 | O=P(CCCl)(OCCCl)OCCCl | 880 mg/kg
78 | CCOP(=S)(OCC)SCSCc1ccccc1 | 6 mg/kg
79 | COC1OC(CNC(=O)N(CCCl)N=O)C(O)C(O)C1O (centres undefined) | 46.4 mg/kg
80 | OCC(Br)C(Br)CO (centres undefined) | 2460 mg/kg
81 | ClCC(Cl)(Cl)CCl | 6300 mg/kg
82 | CC(C)NCC(O)c1ccc(NS(C)(=O)=O)cc1 (centres undefined) | 3450 mg/kg
83 | N#CC(=Cc1ccc(Cl)cc1Cl)C(=O)O | 50 mg/kg
84 | CCN(CC)c1cccc(S(=O)(=O)O)c1 | 7470 mg/kg
85 | c1nnc(NCNc2nncs2)s1 | 260 mg/kg
86 | CCC1OC1(C)C (centres undefined) | 3500 mg/kg
87 | COc1ccc2c(c1OC)C(=O)O[C@@H]2[C@H]1c2c(cc3c(c2OC)OCO3)CCN1C | 1520 mg/kg
88 | Cc1cc(F)ccc1NC(=O)c1cc(Cl)cc(-c2ccc(Cl)cc2)c1O | 2510 mg/kg
89 | CC(O)COC(C)(C)C (centres undefined) | 3770 mg/kg
90 | CCC(C)c1ccccc1OC(=O)NC (centres undefined) | 350 mg/kg
91 | CCCCCC(C=Cn1ccnc1)OCc1ccccc1 (centres undefined) | 2550 mg/kg
92 | Nc1nc(N)c2nc(-c3ccccc3)c(N)nc2n1 | 400 mg/kg
93 | CC(SCC(=O)O)c1ccc2c(c1)Cc1ccccc1-2 (centres undefined) | 1900 mg/kg
94 | CCOC(C(=O)N(C)CCN(C)C)(c1ccccc1)c1ccccc1 | 565 mg/kg
95 | CCCSP(=O)(OCC)Oc1c(Cl)cc(Cl)cc1Cl (centres undefined) | 151 mg/kg
96 | CC(C(=O)O)c1ccc(Oc2nccs2)cc1 (centres undefined) | 135 mg/kg

Row | SMILES | LD50
97 | Cc1ncc(COP(=O)(O)O)c(C=O)c1O | 5900 mg/kg
98 | Nc1ccc(N(c2ccccc2)c2ccc(N)cc2)cc1 | 330 mg/kg
99 | N#C[C@H](O[C@@H]1O[C@H](CO)[C@@H](O)[C@H](O)[C@H]1O)c1ccccc1 | 560 mg/kg
100 | CC(C(=O)O)c1ccc(-n2cc3ccccc3n2)cc1 (centres undefined) | 1550 mg/kg
101 | NCCc1ccc(O)c(O)c1 | 2860 mg/kg
102 | C#CC(C)(CCC=C(C)C)OC(C)=O (centres undefined) | 9620 mg/kg
103 | CCOC(=O)C1=C(C)NC(C)=C(C(=O)OCC)C1c1ccccc1C(F)(F)F | 1220 mg/kg
104 | O=C1c2ccccc2C(=O)C1c1ccccc1 | 163 mg/kg
105 | CC12CCC(CC1=O)C2(C)C=O (centres undefined) | 3100 mg/kg
106 | CC(C(=O)O)c1ccc(CC2CCCC2=O)cc1 (centres undefined) | 145 mg/kg
107 | C#CCOC(=O)CCCCC(=O)OCC#C | 200 mg/kg
108 | C=CCC1=C(C)[C@H](OC(=O)[C@H]2[C@H](C=C(C)C)C2(C)C)CC1=O (relative stereo) | 1320 mg/kg
109 | O=C(Cl)C(Cl)Cl | 2460 mg/kg
110 | CCOC(=O)Nc1ccc2c(c1)N(C(=O)CCN1CCOCC1)c1ccccc1S2 | 1000 mg/kg
111 | CCN(CC)C(=O)CCl | 500 mg/kg
112 | CC(C)(Oc1ccc(Cl)cc1)C(=O)OCCCOC(=O)C(C)(C)Oc1ccc(Cl)cc1 | 7300 mg/kg
113 | COc1cc(Cc2cnc(N)nc2N)cc(OC)c1Br | 2510 mg/kg
114 | O=C(O)CSc1cc(Cl)ccc1Cl | 1900 mg/kg
115 | CC(C)=CCOC(=O)c1ccccc1 | 4700 mg/kg
116 | O=C1C(Cl)=C(Cl)C(Cl)(Cl)C1(Cl)Cl | 178 mg/kg
117 | COc1ccc2c(c1)c1c3n2CCN(C)C3=NCC1 | 1400 mg/kg
118 | Cc1ccc(N=CN(C)SN(C)C=Nc2ccc(C)cc2C)c(C)c1 | 300 mg/kg
119 | CSC(C)(C)C=NOC(=O)N(C)SN1CCOCC1 | 1.2 mg/kg
120 | C=CC(=O)OCCSCC | 2500 mg/kg

Row | SMILES | LD50
121 | CCNc1nc(NCC)nc(SC)n1 | 750 mg/kg
122 | O=C1CCOc2ccccc21 | 2650 mg/kg
123 | CC(NN)c1ccccc1 (centres undefined) | 458 mg/kg
124 | COP(=O)(OC)Sc1ccc([N+](=O)[O-])cc1 | 42.9 mg/kg
125 | NS(=O)(=O)c1cc(Cl)c(Cl)c(S(N)(=O)=O)c1 | 10100 mg/kg
126 | CN(C)c1ncnc2c1ncn2CC1CC1 | 570 mg/kg
127 | O=C(O)CCCNS(=O)(=O)c1cccc(C(F)(F)F)c1 | 13000 mg/kg
128 | C/C(=C1\CCOC(=O)S1)N(C=O)Cc1cnc(C)nc1N | 7600 mg/kg
129 | CCOC(=O)C(CC)(C(=O)NCCN(CC)CC)c1ccccc1 (centres undefined) | 610 mg/kg
130 | C=CCC | 4000 mg/kg
131 | CC(C(=O)OCCCS(=O)(=O)O)c1ccc(-c2ccccc2)cc1 (centres undefined) | 280 mg/kg
132 | C[C@H](CCC(=O)O)[C@H]1CC[C@H]2[C@@H]3[C@@H](O)C[C@@H]4C[C@H](O)CC[C@]4(C)[C@H]3CC[C@]12C | 4600 mg/kg
133 | NCCN1CCOCC1 | 3000 mg/kg
134 | Oc1ccc(C2=CCCCC2)cc1 | 2830 mg/kg
135 | COc1cc(C=CC(=O)N2CCN(CC(=O)N3CCCC3)CC2)cc(OC)c1OC | 1310 mg/kg
136 | CCCCCCC=NO | 1040 mg/kg
137 | CCCCC(C)(C)[C@H](O)C=C[C@H]1[C@H](C)CC(=O)[C@@H]1CC=CCCCC(=O)O | 22 mg/kg
138 | CCN(CC)CCSC(=O)C(c1ccccc1)c1ccccc1 | 2720 mg/kg
139 | COc1ccc2c(c1)OC(C)(C)[C@H](c1ccccc1)[C@H]2c1ccc(OCCN)cc1 | 500 mg/kg
